These results are taken from patent US11753407B2, “Compounds for treating spinal muscular atrophy” (PTC Therapeutics, Inc., priority 2012, dated 2023).

Data set [1] concerns SMN2 minigene mRNA (SMN2-A minigene) in HEK293H cells. Nature of the data set: SMN2 minigene mRNA splicing RT-qPCR assay in cultured cells. The data set is classed as cell-based, human. The settings on record: Homo sapiens, HEK293-H; concentration increasing full length SMN2 mRNA 1.5-fold relative to vehicle-treated cells; HEK293H cells with SMN2-A minigene, 24 hours, 7-point concentration data; read-out: EC1.5x for production of full length SMN2 mRNA. The procedure, abridged: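 HEK293H cells stably carrying the SMN2-A minigene were treated for 24 h at 37 °C with a 7-point, 3.16-fold dilution series of compound. Multiplex RT-qPCR measured exon 7-containing minigene FL mRNA against GAPDH, expressed relative to vehicle by modified ΔΔCt; the EC1.5× is the concentration giving a 1.5-fold increase.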

The subject of data set [2] is Smn protein in SMA patient fibroblast cells (GM03813). The experiment in a line: Smn protein assay in cultured cells (SMN HTRF). In kind it is cell-based, human. The settings on record: SMA patient fibroblast cells, 48 hours; for maximum fold (Fold) increase of Smn protein: 7-point concentration data, fold relative to vehicle control; for EC1.5x for Smn protein expression: 7-point concentration curve, SMN HTRF, concentration producing 1.5 times Smn protein vs DMSO vehicle control. The gist of the method: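 SMA patient fibroblasts (5,000 cells/well, DMEM-10% FBS) were treated for 48 h at 37 °C with a 7-point, 3.16-fold dilution series in triplicate. RIPA lysates were probed by HTRF (anti-SMN d2/kryptate, overnight, room temperature), reading 665/620 nm. EC1.5× is the concentration giving 1.5-fold Smn over DMSO vehicle.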
Background: In TR-FRET formats the signal depends on donor and acceptor labels being close together.

In turn, `C[C@@H]1CN(c2ccc3nc(-c4ccc5c(c4)OCO5)cc(=O)n3c2)C[C@H](C)N1` [Compound 21, 2-(1,3-benzodioxol-5-yl)-7-[(3R,5S)-3,5-dimethylpiperazin-1-yl]-4H-pyrido[1,2-a]pyrimidin-4-one] had a melting point of 198 to 201 °C. Besides, the EC (1.5-fold increase) in data set [1] was 3 to 30 µM. In addition, in data set [2], the “maximum fold (Fold) increase of Smn protein” value (from here on “maximum fold (Fold) increase”) is on record as “* (A maximum fold increase of ≤1.2 is indicated by one star (*))”.
The compound `CCc1nc(C)cn2nc(-c3cc(=O)n4cc(C5CCN(CCCF)CC5)ccc4n3)cc12` [Compound 669, 2-(4-ethyl-6-methylpyrazolo[1,5-a]pyrazin-2-yl)-7-[1-(3-fluoropropyl)piperidin-4-yl]-4H-pyrido[1,2-a]pyrimidin-4-one] registered a melting point of 216 to 218 °C. For the same compound, in data set [1], the EC (1.5-fold increase) was below 0.1 µM. In addition, in data set [2], the “EC1.5x for Smn protein expression” value is “**** (an EC1.5x≤0.3 μM is indicated by four stars (****))” and the “maximum fold (Fold) increase” value is on record as “***** (a fold increase >1.65 is indicated by five stars (*****))”.
Consider `Cc1ccc(-c2cc(=O)n3cc(N4CCNCC4)ccc3n2)cc1` [Compound 63, 2-(4-methylphenyl)-7-(piperazin-1-yl)-4H-pyrido[1,2-a]pyrimidin-4-one], for which the melting point fell in the range of 192 to 195 °C. Moreover, the EC (1.5-fold increase) in data set [1] fell in the range of 1 to 3 µM. For the same compound, the “maximum fold (Fold) increase” value in data set [2] is “** (a fold increase between >1.2 and ≤1.35 is indicated by two stars (**))”.
For the compound `CCc1cc(-c2cc(=O)n3cc(N4CCN(C5CCC5)[C@H](C)C4)ccc3n2)cn2cc(C)nc12` [Compound 650, 7-[(3R)-4-cyclobutyl-3-methylpiperazin-1-yl]-2-(8-ethyl-2-methylimidazo[1,2-a]pyridin-6-yl)-4H-pyrido[1,2-a]pyrimidin-4-one], the melting point lay in the range of 209 to 212 °C. In data set [1], the EC (1.5-fold increase) is below 0.1 µM. Also, in data set [2], the “EC1.5x for Smn protein expression” value is given as “**** (an EC1.5x≤0.3 μM is indicated by four stars (****))” and the “maximum fold (Fold) increase” value was “***** (a fold increase >1.65 is indicated by five stars (*****))”.
The matching figures for `Cc1cc(-c2cc(=O)n3cc(N4CCN[C@H](C)C4)ccc3n2)cc2cn(C)nc12` [Compound 741, 2-(2,7-dimethyl-2H-indazol-5-yl)-7-[(3R)-3-methylpiperazin-1-yl]-4H-pyrido[1,2-a]pyrimidin-4-one]: 170 to 172 °C, below 0.1 µM, “**** (an EC1.5x≤0.3 μM is indicated by four stars (****))” and “***** (a fold increase >1.65 is indicated by five stars (*****))”.
The like results for `CCN1CCC(c2ccc3nc(-c4cc5c(C)nc(C)cn5n4)cc(=O)n3c2)CC1` [Compound 454, 2-(4,6-dimethylpyrazolo[1,5-a]pyrazin-2-yl)-7-(1-ethylpiperidin-4-yl)-4H-pyrido[1,2-a]pyrimidin-4-one] were, in that order, 170 to 172 °C, below 0.1 µM, “**** (an EC1.5x≤0.3 μM is indicated by four stars (****))” and “***** (a fold increase >1.65 is indicated by five stars (*****))”.
As to `COc1ccc(-c2ccc3nc(C4CCNCC4)cc(=O)n3c2)cc1F` [Compound 316, 7-(3-fluoro-4-methoxyphenyl)-2-(piperidin-4-yl)-4H-pyrido[1,2-a]pyrimidin-4-one], the melting point lay in the range of 278 to 281 °C. Also, the EC (1.5-fold increase) in data set [1] was 0.1 to 0.3 µM. Moreover, in data set [2], the “EC1.5x for Smn protein expression” value was “** (an EC1.5× between >1 μM and ≤3 μM is indicated by two stars (**))”; the “maximum fold (Fold) increase” value is listed as “***** (a fold increase >1.65 is indicated by five stars (*****))”.
Take `COc1ccc(-c2cc(=O)n3cc(NC4CCNCC4)cc(F)c3n2)cc1OC` [Compound 48, 2-(3,4-dimethoxyphenyl)-9-fluoro-7-(piperidin-4-ylamino)-4H-pyrido[1,2-a]pyrimidin-4-one]: the melting point was in the range of 224 to 226 °C. Further, the EC (1.5-fold increase) in data set [1] was in the range of 3 to 30 µM. Moreover, the “maximum fold (Fold) increase” value in data set [2] was “* (A maximum fold increase of ≤1.2 is indicated by one star (*))”.
`CCc1nc(C)cn2nc(-c3cc(=O)n4cc(C5CCN(C6CCC6)CC5)ccc4n3)cc12` [Compound 681, 7-(1-cyclobutylpiperidin-4-yl)-2-(4-ethyl-6-methylpyrazolo[1,5-a]pyrazin-2-yl)-4H-pyrido[1,2-a]pyrimidin-4-one] came in with a melting point of 227 to 229 °C. The EC (1.5-fold increase) in data set [1] was below 0.1 µM. Also, in data set [2], the “EC1.5x for Smn protein expression” value is reported as “**** (an EC1.5x≤0.3 μM is indicated by four stars (****))” and the “maximum fold (Fold) increase” value was “***** (a fold increase >1.65 is indicated by five stars (*****))”.
Compound `CCN1CC=C(c2ccc3nc(-c4ccc5c(cnn5C)c4)cc(=O)n3c2)CC1` [Compound 463, 7-(1-ethyl-1,2,3,6-tetrahydropyridin-4-yl)-2-(1-methyl-1H-indazol-5-yl)-4H-pyrido[1,2-a]pyrimidin-4-one] yielded a melting point of 172 to 174 °C. The EC (1.5-fold increase) in data set [1] is below 0.1 µM. Besides, in data set [2], the “EC1.5x for Smn protein expression” value is “*** (an EC1.5× between >0.3 μM and ≤1 μM is indicated by three stars (***))”; the “maximum fold (Fold) increase” value is given as “***** (a fold increase >1.65 is indicated by five stars (*****))”.
`Cc1cc(C2CCNCC2)cn2c(=O)cc(-c3ccc4c(cnn4C)c3)nc12` [Compound 772, 9-methyl-2-(1-methyl-1H-indazol-5-yl)-7-(piperidin-4-yl)-4H-pyrido[1,2-a]pyrimidin-4-one] came in with a melting point of 212 to 217 °C. Besides, the EC (1.5-fold increase) in data set [1] is below 0.1 µM. In data set [2], the “EC1.5x for Smn protein expression” value was “**** (an EC1.5x≤0.3 μM is indicated by four stars (****))” and the “maximum fold (Fold) increase” value was “***** (a fold increase >1.65 is indicated by five stars (*****))”.
`Cc1cn2cc(-c3cc(=O)n4cc(C5CCN(C)CC5)ncc4n3)cc(C)c2n1` [Compound 592, 2-(2,8-dimethylimidazo[1,2-a]pyridin-6-yl)-7-(1-methylpiperidin-4-yl)-4H-pyrazino[1,2-a]pyrimidin-4-one] came in with a melting point of 249 to 251 °C. The EC (1.5-fold increase) in data set [1] lay within 0.1 to 0.3 µM. Also, in data set [2], the “EC1.5x for Smn protein expression” value is “*** (an EC1.5× between >0.3 μM and ≤1 μM is indicated by three stars (***))”; the “maximum fold (Fold) increase” value was “***** (a fold increase >1.65 is indicated by five stars (*****))”.
Turning to `Cc1cn2cc(-c3cc(=O)n4cc(N5CCC(N(C)C)CC5)ccc4n3)cc(F)c2n1` [Compound 297, 7-[4-(dimethylamino)piperidin-1-yl]-2-(8-fluoro-2-methylimidazo[1,2-a]pyridin-6-yl)-4H-pyrido[1,2-a]pyrimidin-4-one], the melting point lay in the range of 250 to 257 °C. For the same compound, the EC (1.5-fold increase) in data set [1] is below 0.1 µM. Moreover, in data set [2], the “EC1.5x for Smn protein expression” value is recorded as “**** (an EC1.5x≤0.3 μM is indicated by four stars (****))” and the “maximum fold (Fold) increase” value is recorded as “***** (a fold increase >1.65 is indicated by five stars (*****))”.

Usually melting point stands for the temperature, or range, at which the solid turns liquid.
